EP1067939B1, “USE OF STEROIDAL ALKALOID DERIVATIVES AS INHIBITORS OF HEDGEHOG PROTEIN SIGNALING PATHWAYS” (The Johns Hopkins University, priority 1998, dated 1999)
“And” between values parts separate entries of the source, which are not always exact repeats. Identical values can stand only once. Like-named read-outs stand apart in the source and are kept apart here.

What was measured:
[1] = system: primary human lymphoblasts; assay: Cholesterol Biosynthesis Assay (sterol profiles of cultured cells); format: cell-based; details: for Percent Sterols: 2. C28 Sterols / Percent Sterols: 3. C29 Sterols / Percent Sterols: Cholesterol / Percent Sterols: c. Cholesta-7,24-dien-3ß-ol / Percent Sterols: d. Zymosterol / Percent Sterols: e. Cholesta-8(14)-en-3ß-ol / Percent Sterols: f. 7 Dehydrocholesterol / Total Sterols (µg/mg protein) / Percent Sterols: h. C27 Sterol 1 (mw 384) / Percent Sterols: j. C27 Oxysterol 1 (mw 400) / Percent Sterols: k. C27 Oxysterol 2 (mw 400) / Percent Sterols: i. C27 Sterol 2 (mw 382): five days
rat hepatoma cells = assay: Cholesterol Esterification Assay (esterification of plasma membrane cholesterol); format: cell-based
Source text: Table 1. […] Table 1. Effects of synthetic and plant-derived compounds on cholesterol homeostasis. […]

endogenous Shh signaling = assay: Midline neural plate/notochord explant assay of endogenous Shh signaling; format: cell-based, chick
Shh-N = assay: Intermediate neural plate explant response to exogenous Shh-N protein; format: cell-based, chick
vibrissa follicle = assay: Vibrissa follicle explant cultures; format: cell-based, mouse
Procedure: Vibrissa follicle explants were established using CD- I mouse embryos at 13.5 days of gestation according to a previously described protocol (Hirai et al., 1989), with minor midifications. Vibrissa pads were transferred onto Nuclepore filters (13 mm, 8 µm pores), and floated on, 2 ml of medium [DMEM (Life Technologies. Gaithersburg, MD) + Ham's F12 medium (Life Technologies) (1:1), with 1% FCS (Intergen, Purchase. NY), penicillin (50 units/ml) and streptomycin (50 gg/ml) (Life Technologies)] in 6-well plates. […] Explants were fed fresh medium every two days. Microdissection was performed with the aid of a Nikon SMZ-2T stereomicroscope and photomicrographs were taken using an Olympus OM-4 camera. Cycloparnine was stored at -20 as a 10 mM stock in 95% EtOH.
RNA was obtained by solubilizing individual explants in TriZol (Life Sciences) and isolating as recommended by the manufacturer. cDNA was synthesized using SuperScript II Rnase H reverse transcriptase with random primers (Life Technologies), and RT-PCR performed using the following primers: MHKA1 (318 bp product), (forward 5'-[…]-3' and reverse 5'-[…]-3'); hacl-1 (308 bp product), (forward 5'-[…].3 and reverse 5'-[…]-3'); profilaggrin (330 bp product), (forward 5-[…]-3' and reverse 5'-[…]-3') (Bickenbach et al., 1995); P actin (421 bp product), (for-ward 5'-[…]-3' and reverse 5'[…]-3') (Walterhouse et al., 1993). The following PCR conditions were used for MHKA1. […]
Explants were established using vibrissa pads obtained from mice at 13.5 days of gestation (Hirai et al., 1989). […] These follicles contained hair shafts and expressed genes encoding mouse hair keratin A I (MHKA 1) (Kaytes et al., 199 1) and a hair cortex-specific marker Hacl- 1 (Huh et al., 1994), detected by RT-PCR (Fig. 11B). […] In keeping with our results obtained using Shh mutant skin, hair-specific transcripts are detected in cycloparnine-treated grafts (Fig. 11B) despite their altered development, providing further support for the notion that biochemical differentiation of the follicle is not necessarily coupled to its morphogenesis.

Shh = target: T1, Shh (Mus musculus, UniProt Q62226); assay: Shh processing in transiently-transfected COS-7 or QT6 cells; format: cell-based
T1 construct: expressed in transfected cells; host or cells: HK293 cells, Ecdysone-Inducible Mammalian Expression System (Invitrogen)

[2] = read-out: Percent Inhibition (incorporation of label into cholesteryl ester*) ^3H-Cholesterol
[3] = read-out: Percent Inhibition (incorporation of label into cholesteryl ester*) ^14C-Oleic Acid
[4] = cultured vibrissa explants, RT-PCR

T1 sequence (Q62226 25-437): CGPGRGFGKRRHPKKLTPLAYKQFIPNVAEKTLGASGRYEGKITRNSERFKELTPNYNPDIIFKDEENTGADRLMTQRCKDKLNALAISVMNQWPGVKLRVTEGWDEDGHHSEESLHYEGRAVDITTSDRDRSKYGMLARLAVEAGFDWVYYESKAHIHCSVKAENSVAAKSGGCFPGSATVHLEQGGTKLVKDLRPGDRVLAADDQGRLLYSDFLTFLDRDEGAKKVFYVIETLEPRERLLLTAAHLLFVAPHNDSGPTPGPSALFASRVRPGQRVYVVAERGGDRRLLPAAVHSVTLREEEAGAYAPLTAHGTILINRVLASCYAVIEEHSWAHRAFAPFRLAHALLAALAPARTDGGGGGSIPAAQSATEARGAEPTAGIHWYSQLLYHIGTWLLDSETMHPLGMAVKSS

CC1=C2C[C@H]3[C@@H](CC=C4C[C@@H](O)CC[C@@]43C)[C@@H]2CC[C@]12O[C@@H]1C[C@H](C)CN[C@H]1[C@H]2C [Cyclopamine, cyclopamine]
Percent Sterols: b. 7 Dehydrodesmosterol [1]: 0.8%
Percent Sterols: 2. C28 Sterols ([1]; 1.25 µM): 1.2%
Percent Sterols: 3. C29 Sterols ([1]; 1.25 µM): 0.7%
Percent Sterols: Cholesterol ([1]; 1.25 µM): 87%
Percent Sterols: c. Cholesta-7,24-dien-3ß-ol ([1]; 1.25 µM): 0.6%
Percent Sterols: d. Zymosterol ([1]; 1.25 µM): 2.3%
Percent Sterols: e. Cholesta-8(14)-en-3ß-ol ([1]; 1.25 µM): 0.9%
Percent Sterols: f. 7 Dehydrocholesterol ([1]; 1.25 µM): 2.4%
Total Sterols (µg/mg protein) ([1]; 1.25 µM): 8.4 µg/mg protein
Percent Sterols: 2. C28 Sterols ([1]; 2.5 µM): 1.3%
Percent Sterols: 3. C29 Sterols ([1]; 2.5 µM): 1.2%
Percent Sterols: Cholesterol ([1]; 2.5 µM): 76%
Percent Sterols: c. Cholesta-7,24-dien-3ß-ol ([1]; 2.5 µM): 0.9%
Percent Sterols: d. Zymosterol ([1]; 2.5 µM): 4.5%
Percent Sterols: e. Cholesta-8(14)-en-3ß-ol ([1]; 2.5 µM): 2.5%
Percent Sterols: f. 7 Dehydrocholesterol ([1]; 2.5 µM): 4.2%
Total Sterols (µg/mg protein) ([1]; 2.5 µM): 8.5 µg/mg protein
Percent Sterols: 2. C28 Sterols ([1]; 5.0 µM): 1.8%
Percent Sterols: 3. C29 Sterols ([1]; 5.0 µM): 3.1%
Percent Sterols: Cholesterol ([1]; 5.0 µM): 68%
Percent Sterols: c. Cholesta-7,24-dien-3ß-ol ([1]; 5.0 µM): 1.6%
Percent Sterols: d. Zymosterol ([1]; 5.0 µM): 4.7%
Percent Sterols: e. Cholesta-8(14)-en-3ß-ol ([1]; 5.0 µM): 2.7%
Percent Sterols: f. 7 Dehydrocholesterol ([1]; 5.0 µM): 6.3%
Total Sterols (µg/mg protein) ([1]; 5.0 µM): 8.3 µg/mg protein
inhibition at 2.5 µM (rat hepatoma cells; [2]): 48%
inhibition at 5 µM (rat hepatoma cells; [2]): 67%
inhibition at 10 µM (rat hepatoma cells; [2]): 79%
inhibition at 2.5 µM (rat hepatoma cells; [3]): 45%
inhibition at 5 µM (rat hepatoma cells; [3]): 62%
inhibition at 10 µM (rat hepatoma cells; [3]): 74%
Higher doses that fully inhibit HNF3β and Isl-1 induction (endogenous Shh signaling): 1.0 µM
Intermediate doses that block induction of HNF3β while permitting induction of Isl-1 (endogenous Shh signaling): 0.25 µM
concentration that inhibits the repression of Pax7 expression by 2 nM Shh-N (Shh-N): 0.0625 µM
doses at which HNF3β and Isl-1 induction are completely blocked (Shh-N): 0.25 µM
intermediate levels at which induction of HNF3β is blocked while induction of Isl-1 is maintained or expanded (Shh-N): 0.125 µM
late-stage follicle differentiation markers (vibrissa follicle; [4]): detected
profilaggrin mRNA (epidermal differentiation) (vibrissa follicle; [4]): accumulate profilaggrin mRNA
Morphogenesis of vibrissa follicles (vibrissa follicle; cyclopamine present in the medium for the duration of the experiment, concentration printed as I ∼M): blocked

C[C@H]1CC[C@]2(NC1)O[C@H]1C[C@H]3[C@@H]4CC[C@H]5C[C@@H](O)CC[C@]5(C)[C@H]4CC[C@]3(C)[C@H]1[C@@H]2C [Tomatidine, tomatidine]
Percent Sterols: b. 7 Dehydrodesmosterol [1]: 0.8% and 0.5%
Percent Sterols: g. Lathosterol [1]: 4.9% and 4.7% and 3.6%
Percent Sterols: Cholesterol ([1]; 1.25 µM): 54%
Percent Sterols: c. Cholesta-7,24-dien-3ß-ol ([1]; 1.25 µM): 0.9%
Percent Sterols: e. Cholesta-8(14)-en-3ß-ol ([1]; 1.25 µM): 6.7%
Percent Sterols: f. 7 Dehydrocholesterol ([1]; 1.25 µM): 19%
Percent Sterols: h. C27 Sterol 1 (mw 384) ([1]; 1.25 µM): 7.0%
Percent Sterols: j. C27 Oxysterol 1 (mw 400) ([1]; 1.25 µM): 1.0%
Percent Sterols: k. C27 Oxysterol 2 (mw 400) ([1]; 1.25 µM): 2.0%
Total Sterols (µg/mg protein) ([1]; 1.25 µM): 7.8 µg/mg protein
Percent Sterols: Cholesterol ([1]; 2.5 µM): 42%
Percent Sterols: c. Cholesta-7,24-dien-3ß-ol ([1]; 2.5 µM): 0.9%
Percent Sterols: e. Cholesta-8(14)-en-3ß-ol ([1]; 2.5 µM): 8.9%
Percent Sterols: f. 7 Dehydrocholesterol ([1]; 2.5 µM): 14%
Percent Sterols: h. C27 Sterol 1 (mw 384) ([1]; 2.5 µM): 13%
Percent Sterols: i. C27 Sterol 2 (mw 382) ([1]; 2.5 µM): 4.1%
Percent Sterols: j. C27 Oxysterol 1 (mw 400) ([1]; 2.5 µM): 2.4%
Percent Sterols: k. C27 Oxysterol 2 (mw 400) ([1]; 2.5 µM): 5.0%
Total Sterols (µg/mg protein) ([1]; 2.5 µM): 7.8 µg/mg protein
Percent Sterols: 2. C28 Sterols ([1]; 5.0 µM): 1.6%
Percent Sterols: 3. C29 Sterols ([1]; 5.0 µM): 3.1%
Percent Sterols: Cholesterol ([1]; 5.0 µM): 32%
Percent Sterols: c. Cholesta-7,24-dien-3ß-ol ([1]; 5.0 µM): 0.7%
Percent Sterols: e. Cholesta-8(14)-en-3ß-ol ([1]; 5.0 µM): 8.7%
Percent Sterols: f. 7 Dehydrocholesterol ([1]; 5.0 µM): 9.8%
Percent Sterols: h. C27 Sterol 1 (mw 384) ([1]; 5.0 µM): 20%
Percent Sterols: i. C27 Sterol 2 (mw 382) ([1]; 5.0 µM): 4.7%
Percent Sterols: j. C27 Oxysterol 1 (mw 400) ([1]; 5.0 µM): 4.5%
Percent Sterols: k. C27 Oxysterol 2 (mw 400) ([1]; 5.0 µM): 11%
Total Sterols (µg/mg protein) ([1]; 5.0 µM): 5.6 µg/mg protein
inhibition at 2.5 µM (rat hepatoma cells; 2.5 µM, read-out: Percent Inhibition (incorporation of label into cholesteryl ester*) ^3H-Cholesterol): 31%
inhibition at 2.5 µM (rat hepatoma cells; 2.5 µM, read-out: Percent Inhibition (incorporation of label into cholesteryl ester*) ^14C-Oleic Acid): 30%
inhibition at 5 µM (rat hepatoma cells; 5.0 µM, read-out: Percent Inhibition (incorporation of label into cholesteryl ester*) ^3H-Cholesterol): 33%
inhibition at 5 µM (rat hepatoma cells; 5.0 µM, read-out: Percent Inhibition (incorporation of label into cholesteryl ester*) ^14C-Oleic Acid): 64%
inhibition at 10 µM (rat hepatoma cells; 10 µM, read-out: Percent Inhibition (incorporation of label into cholesteryl ester*) ^3H-Cholesterol): 39%
inhibition at 10 µM (rat hepatoma cells; 10 µM, read-out: Percent Inhibition (incorporation of label into cholesteryl ester*) ^14C-Oleic Acid): 52%
expression of HNF3β and Isl-1 (endogenous Shh signaling; midline explants, 50 µM (Fig. 3C)): unable to block expression of HNF3β and Isl-1
Shh processing efficiency (Shh): did not observe any effect
concentrations producing partial inhibition relative to those required for complete inhibition by jervine and cyclopamine (Shh-N): 100200 fold
concentration that inhibits the repression of Pax7 expression by 2 nM Shh-N (Shh-N; 2 nM Shh-N, 20 hours): > 50 µM
effect on HNF3β and Isl-1 induction (Shh-N; 50 µM, 25 nM Shh-N): markedly reduces HNF3β induction and enhances Isl1-1 induction
effect on HNF3β and Isl-1 expression (Shh-N; Tomatidine at 25 nM (so in the source), 25 nM Shh-N): slight inhibitory effect
